Results: ChEMBL document CHEMBL5257153, “Oxazolidinones as versatile scaffolds in medicinal chemistry” (RSC Med Chem, 2023)
In brackets after ≈: the same amount, converted by molar mass.

Legend:
MCF7 = test: Anticancer activity against human MCF7 cells assessed as cell growth inhibition incubated for 72 hrs by MTT assay; type: functional, cell-based; details: MCF7, 72 h
HeLa = test: Anticancer activity against human HeLa cells assessed as cell growth inhibition incubated for 72 hrs by MTT assay; type: functional, cell-based
[1] = system: Mycobacterium tuberculosis; test: Antimycobacterial activity against Mycobacterium tuberculosis H37Rv strain assessed as bacterial growth inhibition incubated for 18 to 24 hrs; type: functional; details: time 18-24 hrs
Metaphire posthuma [2] = test: Anti-helmintic activity at Metaphire posthuma assessed as time of survival; type: functional
Metaphire posthuma [3] = test: Anti-helmintic activity at Metaphire posthuma assessed as paralysis induction time; type: functional
[4] = system: Mycobacterium tuberculosis; test: Antimycobacterial activity against Mycobacterium tuberculosis H37Rv strain assessed as bacterial growth inhibition by Microplate amar blue assay; type: functional
HepG2 [5] = test: Anticancer activity against human HepG2 assessed as IL-6 induced luciferase activity; type: functional, cell-based
TF-1 = test: Anticancer activity against human TF-1 cells assessed as cell growth inhibition; type: functional, cell-based
HepG2 [6] = test: Anticancer activity against human HepG2 assessed as IL-6 induced luciferase activity at 50 uM relative to control; type: functional
[7] = target: Aldo-keto reductase family 1 member B1 (Homo sapiens, UniProt P15121); test: Inhibition of […] (unknown origin)
Clostridioides difficile [8] = test: In vivo Antibacterial activity against Clostridium difficile infected in hamster assessed as survival at 50 mg/kg, sc relative to control; type: functional
[9] = Inhibition of human LTC4
[10] = Inhibition of human LTB4
Mycobacterium kansasii = test: Antibacterial activity against Mycobacterium kansasii assessed as bacterial growth inhibition; type: functional
Mycobacteroides chelonae = test: Antibacterial activity against Mycobacteroides chelonae assessed as bacterial growth inhibition; type: functional
[11] = system: Mycolicibacterium fortuitum; test: Antibacterial activity against Mycobacterium fortuitum assessed as bacterial growth inhibition; type: functional
[12] = system: Mycobacterium tuberculosis; test: Antimycobacterial activity against Mycobacterium tuberculosis assessed as bacterial growth inhibition; type: functional
[13] = system: Mycobacterium tuberculosis; test: Antimycobacterial activity against Mycobacterium tuberculosis H37Rv strain assessed as bacterial growth inhibition incubated for 48 hrs by Microplate amar blue assay; type: functional
Rattus norvegicus = species: Rattus norvegicus; test: Anticonvulsant activity in rat; type: functional
[14] = Toxicity in mouse; type: organism-based; details: in vivo
Mus musculus = species: Mus musculus; test: Anticonvulsant activity in mouse; type: functional
[15] = AUClast in Sprague-Dawley rat at 15 mg/kg, iv by HPLCLC-MS/MS analysis; type: ADME, organism-based; design: dose 15 mg/kg, route iv; details: in vivo
Carbonic anhydrase 1 = Carbonic anhydrase 1 (Homo sapiens, UniProt P00915); test: Inhibition of human CA1
Alpha glucosidase = Alpha glucosidase (Homo sapiens, UniProt O43451+P10253+P14410+Q2M2H8); test: Inhibition of human alpha glucosidase; type: protein assay
Acetylcholinesterase = Acetylcholinesterase (Homo sapiens, UniProt P22303); test: Inhibition of human AchE
Carbonic anhydrase 2 = Carbonic anhydrase 2 (Homo sapiens, UniProt P00918); test: Inhibition of human CA2
[16] = target: T1, Acyl-CoA (8-3)-desaturase (Homo sapiens, UniProt O60427); test: Inhibition of human Delta 5 desaturase (unknown origin) expressed in human HepG2 cells; type: cell-based
Target sequence in this assay (O60427 whole entry): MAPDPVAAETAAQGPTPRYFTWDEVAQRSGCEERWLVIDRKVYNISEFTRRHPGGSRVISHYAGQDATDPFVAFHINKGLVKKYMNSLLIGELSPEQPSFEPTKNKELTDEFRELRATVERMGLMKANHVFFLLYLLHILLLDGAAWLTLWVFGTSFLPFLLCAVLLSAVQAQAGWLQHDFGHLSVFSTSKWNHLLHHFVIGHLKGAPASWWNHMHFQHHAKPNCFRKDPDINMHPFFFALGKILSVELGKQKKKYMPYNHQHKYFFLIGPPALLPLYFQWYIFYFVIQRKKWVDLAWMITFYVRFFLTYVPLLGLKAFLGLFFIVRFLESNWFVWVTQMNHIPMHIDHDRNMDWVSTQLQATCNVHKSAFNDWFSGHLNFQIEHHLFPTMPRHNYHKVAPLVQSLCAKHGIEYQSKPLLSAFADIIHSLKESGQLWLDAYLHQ

[17] = target: T1, Acyl-CoA (8-3)-desaturase; test: In vivo inhibition of human Delta 5 desaturase in C57BL/6J mouse at 3 mg/kg, po relative to control; type: organism-based
Target sequence in this assay (O60427 whole entry, looked up): as the sequence (O60427 whole entry) above

[18] = target: T1, Acyl-CoA (8-3)-desaturase; test: In vivo inhibition of human Delta 5 desaturase in atherosclerosis mouse model at 3 mg/kg, po relative to control; type: organism-based
Target sequence in this assay (O60427 whole entry, looked up): as the sequence (O60427 whole entry) above

MGC-803 = test: Anticancer activity against human MGC-803 cells assessed as cell growth inhibition incubated for 48 hrs by MTT assay; type: functional, cell-based; details: MGC-803, 48 h
SK-OV-3 = test: Anticancer activity against human SK-OV-3 cells assessed as cell growth inhibition incubated for 48 hrs by MTT assay; type: functional, cell-based; details: SK-OV-3, 48 h
CNE-2 = test: Anticancer activity against human CNE-2 cells assessed as cell growth inhibition incubated for 48 hrs by MTT assay; type: functional, cell-based; details: CNE-2, 48 h
NCI-H460 = test: Anticancer activity against human NCI-H460 cells assessed as cell growth inhibition incubated for 48 hrs by MTT assay; type: functional, cell-based; details: NCI-H460, 48 h
L02 [19] = test: Cytotoxicity against human L02 cells assessed as cell growth inhibition incubated for 48 hrs by MTT assay; type: functional, cell-based; details: L02, 48 h
Enterococcus faecalis = test: Antibacterial activity against Linezolid resistant Enterococcus faecalis assessed as bacterial growth inhibition incubated for 24 hrs; type: functional
Staphylococcus aureus [20] = test: Antibacterial activity against Staphylococcus aureus assessed as bacterial growth inhibition incubated for 24 hrs; type: functional
Enterococcus faecium = test: Antibacterial activity against Linezolid resistant Enterococcus faecium assessed as bacterial growth inhibition incubated for 24 hrs; type: functional
[21] = Metabolic stability in human microsomes assessed as intrinsic clearance; type: ADME, Microsome
[22] = Metabolic stability in mouse microsomes assessed as intrinsic clearance; type: ADME, Microsome
[23] = Metabolic stability in mouse microsomes assessed as half life; type: ADME, Microsome
[24] = Metabolic stability in human microsomes assessed as half life; type: ADME, Microsome
Kallikrein-6 = Kallikrein-6 (Homo sapiens, UniProt Q92876); test: Inhibition of KLK6 (unknown origin)
Clostridioides difficile [25] = test: Antibacterial activity against Clostridium difficile NCTC 11223 strain assessed as bacterial growth inhibition incubated for 48 hrs by agar dilution method; type: functional
Clostridioides difficile [26] = test: Antibacterial activity against Clostridium difficile ATCC 43255 strain assessed as bacterial growth inhibition incubated for 48 hrs by agar dilution method; type: functional
Clostridioides difficile [27] = test: Antibacterial activity against Clostridium difficile NAP1/027/BI-type strain 2009155 assessed as bacterial growth inhibition incubated for 48 hrs by agar dilution method; type: functional
Clostridioides difficile [28] = test: Antibacterial activity against Clostridium difficile 2004118 strain assessed as bacterial growth inhibition incubated for 48 hrs by agar dilution method; type: functional
Clostridioides difficile [29] = test: Antibacterial activity against Clostridium difficile ATCC 43596 strain assessed as bacterial growth inhibition incubated for 48 hrs by agar dilution method; type: functional
Staphylococcus aureus [30] = test: Antibacterial activity against methicillin sensitive Staphylococcus aureus assessed as bacterial growth inhibition incubated for 18 hrs; type: functional
HEK293 = test: Anticancer activity against HEK293 cells assessed as cell growth inhibition incubated for 48 hrs by MTT assay; type: functional, cell-based; details: Homo sapiens, HEK293, 48 h
L02 [31] = test: Anticancer activity against human L02 cells assessed as cell growth inhibition incubated for 48 hrs by MTT assay; type: functional, cell-based; details: L02, 48 h
Staphylococcus aureus [32] = test: Antibacterial activity against methicillin resistant Staphylococcus aureus assessed as bacterial growth inhibition incubated for 18 hrs; type: functional

Chain of Carbonic anhydrase 1 (P00915 whole entry): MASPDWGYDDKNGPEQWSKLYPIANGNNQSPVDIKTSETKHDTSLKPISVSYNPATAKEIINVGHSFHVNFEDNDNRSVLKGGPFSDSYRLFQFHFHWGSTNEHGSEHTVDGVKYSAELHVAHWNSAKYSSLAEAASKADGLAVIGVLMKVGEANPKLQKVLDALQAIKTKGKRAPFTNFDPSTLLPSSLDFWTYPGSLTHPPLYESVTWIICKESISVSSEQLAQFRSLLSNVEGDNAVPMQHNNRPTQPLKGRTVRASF
Chain of Acetylcholinesterase (P22303 whole entry): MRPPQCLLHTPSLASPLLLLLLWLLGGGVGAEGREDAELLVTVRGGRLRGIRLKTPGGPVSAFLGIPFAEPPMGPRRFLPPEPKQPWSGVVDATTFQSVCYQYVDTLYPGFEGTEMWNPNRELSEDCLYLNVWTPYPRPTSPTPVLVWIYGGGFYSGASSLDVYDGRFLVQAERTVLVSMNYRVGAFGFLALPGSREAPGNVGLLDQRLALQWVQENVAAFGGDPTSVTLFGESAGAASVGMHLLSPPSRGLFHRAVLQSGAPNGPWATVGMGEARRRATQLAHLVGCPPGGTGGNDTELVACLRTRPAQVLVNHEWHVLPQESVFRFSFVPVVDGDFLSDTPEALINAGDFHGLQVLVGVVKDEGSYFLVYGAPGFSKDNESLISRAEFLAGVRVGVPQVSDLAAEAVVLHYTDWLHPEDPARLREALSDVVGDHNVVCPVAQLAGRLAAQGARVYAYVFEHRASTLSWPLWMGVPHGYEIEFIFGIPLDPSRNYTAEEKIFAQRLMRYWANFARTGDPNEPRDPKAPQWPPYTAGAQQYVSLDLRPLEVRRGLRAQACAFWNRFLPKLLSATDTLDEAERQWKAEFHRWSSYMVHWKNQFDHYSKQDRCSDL

CCN(CC)C(=O)/C=C1/OC(=O)N(Cc2ccccc2)C1(C)C
IC50 (MCF7): 31.1 µM
IC50 (HeLa): 17.7 µM

O=C(NCC(=O)N1CCN(c2ccc(N3C[C@H](Cn4ccnn4)OC3=O)cc2F)CC1)c1ccc([N+](=O)[O-])o1
MIC90 [1]: 0.9 µM (≈ 0.488 µg/mL)

O=C(OC[C@H]1CN(c2ccc(N3CCOCC3)nc2)C(=O)O1)C1CCCCC1
Survival (Metaphire posthuma [2]): 8.1 min
Time (Metaphire posthuma [3]): 3.6 min

CC(=O)NC[C@H]1CN(c2ccc(N3C[C@H]4C[C@@H](O)C[C@H]4C3)c(F)c2)C(=O)O1
MIC90 [4]: 0.6 µM

C=C(CCCCC)[C@@H](O)[C@H](C)C(=O)N1C(=O)OC[C@@H]1C(C)C
IC50 (HepG2 [5]): 5.9 µM
IC50 (TF-1): 7.5 µM
inhibition at 50 µM (HepG2 [6]): 90%

COc1cc(COc2ccccc2C2(C)CN(CC(=O)O)C(=O)O2)cc(OC)c1OC (centres undefined)
IC50 [7]: 3.19 µM

O=C1CC2CN(c3ccc(N4C[C@H](Cn5ccnn5)OC4=O)cc3F)CC2C1 (some centres undefined)
MIC90 [4]: 1.2 µM

CN[C@H](CC(C)C)C(=O)N[C@H]1C(=O)N[C@@H](CC(N)=O)C(=O)N[C@H]2C(=O)N[C@H]3C(=O)N[C@H](C(=O)N[C@H](C(=O)O)c4cc(O)cc(O)c4-c4cc3ccc4O)[C@H](O)c3ccc(c(Cl)c3)Oc3cc2cc(c3O[C@@H]2O[C@H](CO)[C@@H](O)[C@H](O)[C@H]2O[C@H]2C[C@](C)(N)[C@H](O)[C@H](C)O2)Oc2ccc(cc2Cl)[C@H]1O [VANCOMYCIN]
survival at 50 mg/kg (Clostridioides difficile [8]): 50%

CCCCCCC(=O)N(O)C[C@H]1CN(c2ccc(N3CCOCC3)c(F)c2)C(=O)O1
IC50 [9]: 0.9 µM
IC50 [10]: 0.7 µM

CC(=O)NC[C@H]1CN(c2ccc(N3CCN(c4ccc5nccn5n4)CC3)c(F)c2)C(=O)O1
MIC90 (Mycobacterium kansasii): 1 µM (≈ 0.453 µg/mL)
MIC90 (Mycobacteroides chelonae): 8 µM (≈ 3.63 µg/mL)
MIC90 [11]: 8 µM (≈ 3.63 µg/mL)
MIC90 [12]: 1.1 µM (≈ 0.499 µg/mL)

CC(C)C[C@@H](NC(=O)OC1c2ccccc2-c2ccccc21)C(=O)N[C@@H](Cc1ccccc1)[C@H]1CN(c2ccc(N3CCOCC3)c(F)c2)C(=O)O1
MIC90 [12]: 2.6 µM (≈ 1.84 µg/mL)

O=C1O[C@@H](Cn2ccnn2)CN1c1ccc(N2CCOCC2)c(F)c1
MIC90 [13]: 1.3 µM (≈ 0.452 µg/mL)

CC(=O)NC[C@H]1CN(c2ccc(-c3ccc(-c4csc(N)n4)cc3)c(F)c2)C(=O)O1
MIC90 [12]: 0.9 µM (≈ 0.384 µg/mL)

O=C(NCC(=O)N1CCN(c2ccc(N3C[C@H](Cn4ccnn4)OC3=O)cc2F)CC1)c1cccs1
ED50 (Rattus norvegicus): 34.5 mg/kg
TD50 [14]: > 500 mg/kg
ED50 (Mus musculus): 90 mg/kg

O=C(COP(=O)(O)O)N1CCN(c2ccc(-c3ccc(N4C[C@H](Cn5ccnn5)OC4=O)cc3F)cn2)C=N1
AUClast [15]: 5.08 mg/h/L

CC1(C)O[C@@H]2[C@@H](O)[C@H]3NC(=O)O[C@H]3C[C@@H]2O1
IC50 (Carbonic anhydrase 1): 45.6 µM
IC50 (Alpha glucosidase): 30.5 µM
IC50 (Acetylcholinesterase): 58.7 µM
IC50 (Carbonic anhydrase 2): 24.8 µM

COc1ccc(C2CC3(CN(CC(=O)O)C(=O)O3)c3cc(Br)ccc3O2)cc1 (centres undefined)
IC50 [7]: 0.65 µM

C[C@@H]1[C@@H](c2ccc(F)cc2)OC(=O)N1c1cc(C#N)cc(C#N)c1
IC50 [16]: 0.0015 µM
inhibition [17]: 74%
inhibition [18]: 66%

Cc1ncc([N+](=O)[O-])n1CCO [METRONIDAZOLE]
survival at 50 mg/kg (Clostridioides difficile [8]): 0%

CC(C)c1ccc2c(c1)CCC1[C@](C)(C(=O)OCC3CN(c4ccc(F)cc4)C(=O)O3)CCC[C@]21C (some centres undefined)
IC50 (MGC-803): 3.82 µM
IC50 (SK-OV-3): 3.82 µM
IC50 (CNE-2): 3.82 µM
IC50 (NCI-H460): 3.82 µM
IC50 (L02 [19]): > 100 µM

O=C(CO)N1CCN(c2ccc(-c3ccc(N4C[C@H](Cn5ccnn5)OC4=O)cc3F)cn2)C=N1
MIC (Enterococcus faecalis): < 2 µg/mL
MIC (Staphylococcus aureus [20]): < 2 µg/mL
AUClast [15]: 85 mg/h/L
MIC (Enterococcus faecium): < 2 µg/mL

CC[C@H](NC(=O)[C@H]1CN(c2ccc(C(=N)N)cc2)C(=O)O1)c1cccc2ccccc12
CLH [21]: 3.1 mL/min/g
CLH [22]: 2.4 mL/min/g
half-life [23]: > 3 h
half-life [24]: > 3 h

COc1ccccc1-c1ccc([C@H](C)Nc2cncc(N3C(=O)OC[C@@H]3C(C)C)n2)cc1
IC50 (Kallikrein-6): 0.00251 µM

CC(=O)NC[C@H]1CN(c2ccc(-c3cnc(-n4cncn4)nc3)c(F)c2)C(=O)O1
MIC90 (Clostridioides difficile [25]): 0.25 µg/mL (≈ 0.629 µM)
MIC90 (Clostridioides difficile [26]): 0.25 µg/mL (≈ 0.629 µM)
MIC90 (Clostridioides difficile [27]): 0.25 µg/mL (≈ 0.629 µM)
MIC90 (Clostridioides difficile [28]): 0.25 µg/mL (≈ 0.629 µM)
survival at 50 mg/kg (Clostridioides difficile [8]): 100%
MIC90 (Clostridioides difficile [29]): 0.25 µg/mL (≈ 0.629 µM)

CC(=O)NC[C@H]1CN(c2ccc(-n3cc(-c4ccccn4)cn3)c(F)c2)C(=O)O1
MIC (Staphylococcus aureus [30]): 1 µg/mL (≈ 2.53 µM)
IC50 (HEK293): > 25 µM
IC50 (L02 [31]): 50 µM
MIC (Staphylococcus aureus [32]): 0.5 µg/mL (≈ 1.26 µM)

CCOc1nc(-c2ccc(N3C[C@H](CNC(C)=O)OC3=O)cc2F)cs1
MIC90 [12]: 2.6 µM (≈ 0.986 µg/mL)
